We go through ten compounds from USRE50082E1, “(5,6-dihydro)pyrimido[4,5-e]indolizines” (NETHERLANDS TRANSLATIONAL RESEARCH CENTER B.V., priority 2014, dated 2024).

Test [1] concerns HeLa-Matu cervical tumor cell. The note with it: cited from earlier work.
The target in a further test is T1, Aurora A (Homo sapiens, UniProt O14965).
T1 construct: full-length Aurora A enzyme (Carna Biosciences, cat. no. 05-101); purchased Carna Biosciences 05-101
T1 sequence (O14965 1-403): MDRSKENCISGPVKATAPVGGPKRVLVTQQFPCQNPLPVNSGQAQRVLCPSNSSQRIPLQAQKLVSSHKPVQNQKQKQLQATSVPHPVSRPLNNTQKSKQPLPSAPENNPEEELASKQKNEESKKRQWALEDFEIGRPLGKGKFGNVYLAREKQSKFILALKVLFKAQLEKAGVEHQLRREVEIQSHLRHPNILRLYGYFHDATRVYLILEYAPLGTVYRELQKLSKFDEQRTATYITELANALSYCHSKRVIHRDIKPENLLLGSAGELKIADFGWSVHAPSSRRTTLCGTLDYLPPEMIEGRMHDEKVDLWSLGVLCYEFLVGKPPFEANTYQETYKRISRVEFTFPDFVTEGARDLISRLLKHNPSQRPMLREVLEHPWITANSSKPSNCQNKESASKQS
Description: Biochemical Aurora A kinase assay (LANCE Ultra TR-FRET). The note with it: for AurA Selectivity: IC50 AurA/IC50 TTK (biochemical assays); for IC50: full-length Aurora A, 2 μM ATP. (Time-resolved FRET reads energy transfer from a long-lived donor to a nearby acceptor.)

Test [2] addresses Polo-like kinase 1 (PLK1) (Homo sapiens, UniProt P53350). Briefly: Biochemical Polo-like kinase 1 kinase assay (LANCE Ultra TR-FRET). The note with it: for PLK1 Selectivity: IC50 PLK1/IC50 TTK (biochemical assays).
Description: To determine the inhibitory activity of the compounds on Polo-like kinase 1 (PLK1), the LANCE® Ultra TR-FRET assay (Perkin Elmer) was used. […] After 4 hours, the reaction was stopped by the addition of 5 μl 100 mM EDTA. […] Time-resolved fluorescence was measured on an Envision multilabel reader (Perkin Elmer, Waltham, Mass. USA). IC50 were calculated using XLfit™5 software (ID Business Solutions, Ltd., Surrey, U.K.).
For a further test, the system named is MOLT-4 cancer cell line. Description: Cell proliferation assay, MOLT-4 cancer cell line (ATPlite).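 Note: luminescence read-out, percent growth versus compound-free DMSO wells as maximum growth, start-of-incubation signal separating growth from cell death, IC50 from logistic curve fit.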 The class given is cell-based. To be noted: Homo sapiens.
Another test concerns the target T2, Aurora C (Homo sapiens, UniProt Q9UQB9).
T2 construct: full-length Aurora C enzyme (Carna Biosciences, cat. no. 05-103); purchased Carna Biosciences 05-103
T2 sequence (Q9UQB9 1-309): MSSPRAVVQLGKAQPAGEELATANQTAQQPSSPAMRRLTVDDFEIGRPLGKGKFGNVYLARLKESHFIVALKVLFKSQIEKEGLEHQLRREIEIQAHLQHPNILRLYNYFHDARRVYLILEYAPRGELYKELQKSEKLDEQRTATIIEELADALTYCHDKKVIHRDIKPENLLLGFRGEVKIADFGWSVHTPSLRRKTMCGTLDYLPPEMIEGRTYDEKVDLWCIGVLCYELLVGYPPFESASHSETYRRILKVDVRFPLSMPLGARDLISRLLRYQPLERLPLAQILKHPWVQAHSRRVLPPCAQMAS
Briefly: Biochemical Aurora C kinase assay (LANCE Ultra TR-FRET). To be noted: for AurC Selectivity: IC50 AurC/IC50 TTK (biochemical assays); for IC50: full-length Aurora C, 5 μM ATP.

Another test deals with human cancer cell lines. To be noted: Colombo et al.; read-out: IC50 proliferation of cancer cell lines from different tumor origin; cited from earlier work.
The next test relates to A2780. The note with it: mouse xenograft model; cited from earlier work.
A further test relates to A375. The note with it: mouse xenograft model; cited from earlier work.
Where [3] appears, read: MOLT-4, 72 hours incubation, ATPlite 1Step, read-out: IC50 MOLT-4 cell proliferation.
The mark [4] stands for this setting: MOLT-4, worded 'TTK cellular assay', read-out: IC50 in the TTK cellular assay.

Read-outs that look alike come from different tables or passages of the source.

Polo-like kinase 1 (PLK1), sequence (P53350 whole entry): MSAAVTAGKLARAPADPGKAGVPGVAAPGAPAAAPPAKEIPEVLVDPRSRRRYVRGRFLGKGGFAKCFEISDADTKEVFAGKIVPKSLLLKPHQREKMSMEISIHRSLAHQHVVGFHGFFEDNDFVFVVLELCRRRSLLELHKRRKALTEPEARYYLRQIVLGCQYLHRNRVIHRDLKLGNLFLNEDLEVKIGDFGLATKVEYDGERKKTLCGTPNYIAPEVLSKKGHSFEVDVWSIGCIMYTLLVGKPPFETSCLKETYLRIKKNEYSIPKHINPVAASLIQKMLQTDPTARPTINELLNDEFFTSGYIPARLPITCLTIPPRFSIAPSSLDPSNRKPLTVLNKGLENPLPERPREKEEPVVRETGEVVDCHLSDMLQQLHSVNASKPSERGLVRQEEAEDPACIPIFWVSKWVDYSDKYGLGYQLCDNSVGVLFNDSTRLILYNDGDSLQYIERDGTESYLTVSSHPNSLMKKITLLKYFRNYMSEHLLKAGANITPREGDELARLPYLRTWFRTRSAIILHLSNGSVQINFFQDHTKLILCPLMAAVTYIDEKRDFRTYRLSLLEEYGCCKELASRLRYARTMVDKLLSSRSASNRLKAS
Description for Aurora A: To determine the inhibitory activity of the compounds on Aurora A, the LANCE® Ultra TR-FRET assay (Perkin Elmer) was used. […] After 2 hours, the reaction was stopped by the addition of 5 μl 100 mM EDTA. […] Time-resolved fluorescence was measured on an Envision multilabel reader (Perkin Elmer, Waltham, Mass., USA). IC50 were calculated using XLfit™5 software (ID Business Solutions, Ltd., Surrey, U.K.).
Description for Aurora C: To determine the inhibitory activity of the compounds on Aurora C, the LANCE® Ultra TR-FRET assay (Perkin Elmer) was used. […] After pre-incubation of 1 hour in the dark at room temperature, ULightTM-labeled PLK([MUT]) substrate peptide (Perkin Elmer, cat. no. TRF-0110) and ATP were added, to start the reaction. […] After 3 hours, the reaction was stopped by the addition of 5 μl 100 mM EDTA. […] Time-resolved fluorescence was measured on an Envision multilabel reader (Perkin Elmer, Waltham, Mass., USA). IC50 were calculated using XLfitTM5 software (ID Business Solutions, Ltd., Surrey, U.K.).

For the compound `CC(C)CNc1nccn2c(-c3ccc(C(=O)NC4CC4)cc3)cnc12` [Mps-BAY2b], the “Efficacy of paclitaxel in combination” value in test [1] (HeLa-Matu mouse xenograft model, with paclitaxel) is “increased the efficacy of paclitaxel”. The “HeLa-Matu cervical tumor cell growth” value in test [1] (mouse xenograft model) is “inhibit HeLa-Matu cervical tumor cell growth”.

Consider `CCc1n[nH]c(CC)c1NC(=O)c1ccn2c1CCc1cnc(Nc3ccc(N4CCN(C)CC4)cc3OC(F)F)nc1-2` [Example 33, N-(3,5-diethyl-1H-pyrazol-4-yl)-2-[2-(difluoromethoxy)-4-(4-methylpiperazin-1-yl)anilino]-5,6-dihydropyrimido[4,5-e]indolizine-7-carboxamide], for which the “AurA Selectivity” value at Aurora A is on record as over 500. Further, the IC50 is at least 100 nM against Aurora A, at least 250 nM in test [2], under 50 nM with MOLT-4 cancer cell line (setting [3]) and at least 100 nM at Aurora C. Also, in test [2], the “PLK1 Selectivity” value is over 500. Moreover, the “AurC Selectivity” value at Aurora C was over 500.

With `CCOCCOCCn1nc(CC)c(NC(=O)c2ccn3c2CCc2cnc(Nc4ccc(N5CCNCC5)cc4OC)nc2-3)c1CC` [Example 151, N-[1-[2-(2-ethoxyethoxy)ethyl]-3,5-diethyl-pyrazol-4-yl]-2-(2-methoxy-4-piperazin-1-yl-anilino)-5,6-dihydropyrimido[4,5-e]indolizine-7-carboxamide], at Aurora A, the “AurA Selectivity” value is on record as over 100 and the IC50 was at least 100 nM. In test [2], the IC50 is at least 250 nM and the “PLK1 Selectivity” value is on record as over 500. For the same compound, the IC50 in the test with MOLT-4 cancer cell line (setting [4]) was under 50 nM. Moreover, on Aurora C, the “AurC Selectivity” value is reported as over 500 and the IC50 is at least 100 nM.

In the case of `CCc1nn(CCOCCOC)c(CC)c1NC(=O)c1ccn2c1CCc1cnc(Nc3ccc(N4CCN(C)CC4)cc3OC)nc1-2` [Example 141, N-[3,5-diethyl-1-[2-(2-methoxyethoxy)ethyl]pyrazol-4-yl]-2-[2-methoxy-4-(4-methylpiperazin-1-yl)anilino]-5,6-dihydropyrimido[4,5-e]indolizine-7-carboxamide], on Aurora A, the “AurA Selectivity” value is given as over 200 and the IC50 is at least 100 nM. Moreover, in test [2], the IC50 was at least 250 nM and the “PLK1 Selectivity” value is over 500. Moreover, the IC50 in the test with MOLT-4 cancer cell line (setting [3]) is under 50 nM. At Aurora C, the “AurC Selectivity” value is recorded as over 500 and the IC50 is at least 100 nM.

Regarding `CCNCC(=O)N1CCN(c2ccc(Nc3ncc4c(n3)-n3ccc(C(=O)Nc5c(CC)nn(CCOCCOC)c5CC)c3CC4)c(OC)c2)CC1` [Example 158, N-[3,5-diethyl-1-[2-(2-methoxyethoxy)ethyl]pyrazol-4-yl]-2-[4-[4-[2-(ethylamino)acetyl]piperazin-1-yl]-2-methoxy-anilino]-5,6-dihydropyrimido[4,5-e]indolizine-7-carboxamide], at Aurora A, the “AurA Selectivity” value is given as over 200 and the IC50 was at least 100 nM. For the same compound, in test [2], the IC50 is at least 250 nM and the “PLK1 Selectivity” value is over 500. For the same compound, in the test on MOLT-4 cancer cell line (setting [4]), the IC50 is under 50 nM. Moreover, at Aurora C, the “AurC Selectivity” value is listed as over 500 and the IC50 was at least 100 nM.

Turning to `CCc1cccc(CC)c1NC(=O)c1nn(C)c2c1CCc1cnc(Nc3ccc(C(=O)NC4CCN(C)CC4)cc3OC(F)(F)F)nc1-2` [NMS-P715], in the test on human cancer cell lines, the IC50 was at least 1000 nM. The “Tumor growth, A2780 xenograft” value in the test with A2780 is listed as “inhibited tumor growth”. For the same compound, the “Tumor growth, A375 xenograft” value in the test with A375 was “inhibited tumor growth”.

Turning to `CCOCCOCCn1nc(CC)c(NC(=O)c2ccn3c2CCc2cnc(Nc4ccc(N5CCN(C)CC5)cc4OC)nc2-3)c1CC` [Example 150, N-[1-[2-(2-ethoxyethoxy)ethyl]-3,5-diethyl-pyrazol-4-yl]-2-[2-methoxy-4-(4-methylpiperazin-1-yl)anilino]-5,6-dihydropyrimido[4,5-e]indolizine-7-carboxamide], at Aurora A, the “AurA Selectivity” value is given as over 200 and the IC50 was at least 100 nM. Also, in test [2], the IC50 is at least 250 nM and the “PLK1 Selectivity” value was over 500. The IC50 in the test with MOLT-4 cancer cell line (setting [4]) is under 50 nM. Moreover, at Aurora C, the “AurC Selectivity” value was over 500 and the IC50 is at least 100 nM.

Regarding `COCCOCCOCCn1nc(C)c(NC(=O)c2ccn3c2CCc2cnc(Nc4ccc(N5CCNCC5)cc4OC)nc2-3)c1C` [Example 156, N-[1-[2-[2-(2-methoxyethoxy)ethoxy]ethyl]-3,5-dimethyl-pyrazol-4-yl]-2-(2-methoxy-4-piperazin-1-yl-anilino)-5,6-dihydropyrimido[4,5-e]indolizine-7-carboxamide], the “AurA Selectivity” value at Aurora A was over 200. Moreover, the IC50 on Aurora A is at least 100 nM; in test [2], at least 250 nM; with MOLT-4 cancer cell line (setting [4]) it was under 50 nM; against Aurora C, at least 100 nM. Also, in test [2], the “PLK1 Selectivity” value is over 500. Also, the “AurC Selectivity” value on Aurora C was over 500.

Turning to `COCCOCCOCCn1nc(C)c(NC(=O)c2ccn3c2CCc2cnc(Nc4ccc(-c5c(C)nn(C)c5C)cc4OC)nc2-3)c1C` [Example 160, N-[1-[2-[2-(2-methoxyethoxy)ethoxy]ethyl]-3,5-dimethyl-pyrazol-4-yl]-2-[2-methoxy-4-(1,3,5-trimethylpyrazol-4-yl)anilino]-5,6-dihydropyrimido[4,5-e]indolizine-7-carboxamide], the IC50 was at least 100 nM on Aurora A; at least 250 nM in test [2]; under 50 nM in the test on MOLT-4 cancer cell line (MOLT-4, read-out: IC50 in the TTK cellular assay); at least 100 nM on Aurora C.

With `CCc1nn(CCOCCOC)c(CC)c1NC(=O)c1ccn2c1CCc1cnc(Nc3ccc(N4CCN(C(=O)COC)CC4)cc3OC)nc1-2` [Example 159, N-[3,5-diethyl-1-[2-(2-methoxyethoxy)ethyl]pyrazol-4-yl]-2-[2-methoxy-4-[4-(2-methoxyacetyl)piperazin-1-yl]anilino]-5,6-dihydropyrimido[4,5-e]indolizine-7-carboxamide], on Aurora A, the “AurA Selectivity” value was over 200 and the IC50 was at least 100 nM. Besides, in test [2], the IC50 was at least 250 nM and the “PLK1 Selectivity” value was over 500. Also, the IC50 with MOLT-4 cancer cell line (setting [4]) was under 50 nM. Also, at Aurora C, the “AurC Selectivity” value is reported as over 200 and the IC50 was at least 100 nM.
